# According to ChEMBL document CHEMBL1201861, “Genomics of Drug Sensitity in Cancer screening data, Wellcome Trust Sanger Institute”:
# Columns and labels:
# Assay in all cases: cells
# Assay type in all cases: functional, cell-based, Homo sapiens
# BHT-101 = conditions: Homo sapiens, BHT-101
# Description: SANGER: Inhibition of human BHT-101 cell growth in a cell viability assay.
# ZR-75-30 = conditions: Homo sapiens, ZR-75-30;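 further: growth inhibition of ZR-75-30 cells, measured with a cell viability readout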
# Description: SANGER: Inhibition of human ZR-75-30 cell growth in a cell viability assay.
# HTC-C3 = conditions: Homo sapiens, HTC-C3;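 further: inhibition of cell growth, read out with a cell viability assay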
# Description: SANGER: Inhibition of human HTC-C3 cell growth in a cell viability assay.
# NCI-H358 = conditions: Homo sapiens, NCI-H358;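 further: growth inhibition of NCI-H358 human cells, read out with a cell viability assay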
# Description: SANGER: Inhibition of human NCI-H358 cell growth in a cell viability assay.
# HuO-3N1 = conditions: Homo sapiens, HuO-3N1;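 further: cell viability readout used to measure how strongly compounds suppress proliferation of human HuO-3N1 cells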
# Description: SANGER: Inhibition of human HuO-3N1 cell growth in a cell viability assay.
# S-117 = conditions: Homo sapiens, S-117
# Description: SANGER: Inhibition of human S-117 cell growth in a cell viability assay.
# H4 = conditions: Homo sapiens, H4
# Description: SANGER: Inhibition of human H4 cell growth in a cell viability assay.
# HEC-1 = conditions: Homo sapiens, HEC-1;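 further: growth inhibition of the cell line, read out with a cell viability assay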
# Description: SANGER: Inhibition of human HEC-1 cell growth in a cell viability assay.
# SW780 = conditions: Homo sapiens, SW780;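 further: growth inhibition of the cells, read out with a cell viability assay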
# Description: SANGER: Inhibition of human SW780 cell growth in a cell viability assay.
# NCI-H1793 = conditions: Homo sapiens, NCI-H1793;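 further: cell growth inhibition, read out by a cell viability assay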
# Description: SANGER: Inhibition of human NCI-H1793 cell growth in a cell viability assay.
# KYSE-510 = conditions: Homo sapiens, KYSE-510;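 further: cell viability readout used to measure how strongly growth of the cell line is suppressed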
# Description: SANGER: Inhibition of human KYSE-510 cell growth in a cell viability assay.
# SAS = conditions: Homo sapiens, SAS;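 further: growth inhibition of SAS cells, read out with a cell viability assay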
# Description: SANGER: Inhibition of human SAS cell growth in a cell viability assay.
# NCI-H1623 = conditions: Homo sapiens, NCI-H1623;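 further: cell viability assay used as the read-out for growth inhibition of NCI-H1623 cells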
# Description: SANGER: Inhibition of human NCI-H1623 cell growth in a cell viability assay.
# UACC-62 = conditions: Homo sapiens, UACC-62;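 further: growth inhibition of human UACC-62 cells, read out by a cell viability assay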
# Description: SANGER: Inhibition of human UACC-62 cell growth in a cell viability assay.
# VM-CUB-1 = conditions: Homo sapiens, VM-CUB-1;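 further: cell viability assay measuring growth inhibition of the human VM-CUB-1 cell line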
# Description: SANGER: Inhibition of human VM-CUB-1 cell growth in a cell viability assay.
# GMS-10 = conditions: Homo sapiens, GMS-10;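 further: growth inhibition of GMS-10 cells, read out as cell viability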
# Description: SANGER: Inhibition of human GMS-10 cell growth in a cell viability assay.
# Ca9-22 = conditions: Homo sapiens, Ca9-22;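 further: growth inhibition of Ca9-22 cells, read out with a cell viability assay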
# Description: SANGER: Inhibition of human Ca9-22 cell growth in a cell viability assay.
# LU-99A = conditions: Homo sapiens, LU-99A;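 further: growth inhibition of LU-99A cells, read out with a cell viability assay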
# Description: SANGER: Inhibition of human LU-99A cell growth in a cell viability assay.
# PANC-03-27 = conditions: Homo sapiens, PANC-03-27
# Description: SANGER: Inhibition of human PANC-03-27 cell growth in a cell viability assay.
# HCT-15 = conditions: Homo sapiens, HCT-15;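 further: cell viability readout, IC50 reflecting suppression of HCT-15 cell growth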
# Description: SANGER: Inhibition of human HCT-15 cell growth in a cell viability assay.
# CAL-62 = conditions: Homo sapiens, CAL-62;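 further: growth inhibition of CAL-62 cells, read out with a cell viability assay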
# Description: SANGER: Inhibition of human CAL-62 cell growth in a cell viability assay.
# NB14 = conditions: Homo sapiens, NB14;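 further: growth inhibition of NB14 cells measured with a cell viability assay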
# Description: SANGER: Inhibition of human NB14 cell growth in a cell viability assay.
# NCI-H661 = conditions: Homo sapiens, NCI-H661;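 further: cell viability assay read-out, IC50 being the concentration that inhibits growth of the cells by half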
# Description: SANGER: Inhibition of human NCI-H661 cell growth in a cell viability assay.
# SW756 = conditions: Homo sapiens, SW756;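 further: growth inhibition of human SW756 cells, read out with a cell viability assay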
# Description: SANGER: Inhibition of human SW756 cell growth in a cell viability assay.
# HCC38 = conditions: Homo sapiens, HCC38;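 further: cell viability assay on the human HCC38 cell line, with IC50 marking the concentration that inhibits cell growth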
# Description: SANGER: Inhibition of human HCC38 cell growth in a cell viability assay.
# CP50-MEL-B = conditions: Homo sapiens, CP50-MEL-B;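 further: growth inhibition of the human cell line, measured with a cell viability read-out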
# Description: SANGER: Inhibition of human CP50-MEL-B cell growth in a cell viability assay.
# NCI-H1993 = conditions: Homo sapiens, NCI-H1993;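 further: growth inhibition of the cancer cell line, assessed with a cell viability assay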
# Description: SANGER: Inhibition of human NCI-H1993 cell growth in a cell viability assay.
# HN = conditions: Homo sapiens, HN
# Description: SANGER: Inhibition of human HN cell growth in a cell viability assay.
# LCLC-97TM1 = conditions: Homo sapiens, LCLC-97TM1;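 further: cell viability assay measuring growth inhibition of human LCLC-97TM1 cells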
# Description: SANGER: Inhibition of human LCLC-97TM1 cell growth in a cell viability assay.
# MKN-1 = conditions: Homo sapiens, MKN-1;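 further: growth inhibition of human MKN1 cells, read out by a cell viability measurement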
# Description: SANGER: Inhibition of human MKN1 cell growth in a cell viability assay.
# C3A = conditions: Homo sapiens, C3A;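 further: growth inhibition of C3A human cells, quantified with a cell viability readout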
# Description: SANGER: Inhibition of human C3A cell growth in a cell viability assay.
# 639-V = conditions: Homo sapiens, 639-V;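 further: growth inhibition of 639-V cells, read out with a cell viability assay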
# Description: SANGER: Inhibition of human 639-V cell growth in a cell viability assay.
# SW48 = conditions: Homo sapiens, SW48;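 further: growth inhibition of SW48 cells, read out with a cell viability assay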
# Description: SANGER: Inhibition of human SW48 cell growth in a cell viability assay.
# CaR-1 = conditions: Homo sapiens, CaR-1;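 further: growth inhibition of human CaR-1 cancer cells, read out with a cell viability assay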
# Description: SANGER: Inhibition of human CaR-1 cell growth in a cell viability assay.
# T-24 = conditions: Homo sapiens, T-24;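 further: growth inhibition of T-24 cells, read out with a cell viability assay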
# Description: SANGER: Inhibition of human T-24 cell growth in a cell viability assay.
# IGROV-1 = conditions: Homo sapiens, IGROV-1;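 further: reduction of IGROV-1 cell growth, read out with a viability assay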
# Description: SANGER: Inhibition of human IGROV-1 cell growth in a cell viability assay.
# CAL-51 = conditions: Homo sapiens, CAL-51;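 further: human CAL-51 cell line, growth inhibition read out via a cell viability assay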
# Description: SANGER: Inhibition of human CAL-51 cell growth in a cell viability assay.
# CAL-39 = conditions: Homo sapiens, CAL-39;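 further: cell viability assay measuring growth inhibition of CAL-39 cells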
# Description: SANGER: Inhibition of human CAL-39 cell growth in a cell viability assay.
# LN-405 = conditions: Homo sapiens, LN-405
# Description: SANGER: Inhibition of human LN-405 cell growth in a cell viability assay.
SMILES,IC50 (BHT-101) [nM],IC50 (ZR-75-30) [nM],IC50 (HTC-C3) [nM],IC50 (NCI-H358) [nM],IC50 (HuO-3N1) [nM],IC50 (S-117) [nM],IC50 (H4) [nM],IC50 (HEC-1) [nM],IC50 (SW780) [nM],IC50 (NCI-H1793) [nM],IC50 (KYSE-510) [nM],IC50 (SAS) [nM],IC50 (NCI-H1623) [nM],IC50 (UACC-62) [nM],IC50 (VM-CUB-1) [nM],IC50 (GMS-10) [nM],IC50 (Ca9-22) [nM],IC50 (LU-99A) [nM],IC50 (PANC-03-27) [nM],IC50 (HCT-15) [nM],further results
Cc1cn(-c2cc(NC(=O)c3ccc(C)c(Nc4nccc(-c5cccnc5)n4)c3)cc(C(F)(F)F)c2)cn1 [NILOTINIB],643,> 2000,> 2000,> 2000,> 2000,> 2000,> 2000,> 2000,> 2000,> 2000,> 2000,> 2000,> 2000,> 2000,> 2000,> 2000,> 2000,> 2000,> 2000,> 2000,IC50 (CAL-62): > 2000 nM; IC50 (NB14): > 2000 nM; IC50 (NCI-H661): > 2000 nM; IC50 (SW756): > 2000 nM; IC50 (HCC38): > 2000 nM; IC50 (CP50-MEL-B): > 2000 nM; IC50 (NCI-H1993): > 2000 nM; IC50 (HN): > 2000 nM; IC50 (LCLC-97TM1): > 2000 nM; IC50 (MKN-1): > 2000 nM; IC50 (C3A): > 2000 nM; IC50 (639-V): > 2000 nM; IC50 (SW48): > 2000 nM; IC50 (CaR-1): > 2000 nM; IC50 (T-24): > 2000 nM; IC50 (IGROV-1): > 2000 nM; IC50 (CAL-51): > 2000 nM; IC50 (CAL-39): > 2000 nM; IC50 (LN-405): > 2000 nM
CO[C@H]1C[C@@H]2CC[C@@H](C)[C@@](O)(O2)C(=O)C(=O)N2CCCC[C@H]2C(=O)O[C@H]([C@H](C)C[C@@H]2CC[C@@H](OC(=O)C(C)(CO)CO)[C@H](OC)C2)CC(=O)[C@H](C)/C=C(\C)[C@@H](O)[C@@H](OC)C(=O)[C@H](C)C[C@H](C)/C=C/C=C/C=C/1C [TEMSIROLIMUS],197,> 200,68.2,131,23,105,1.07,> 200,4.83,45.7,> 200,> 200,> 200,> 200,12.7,> 200,96.6,125,> 200,> 200,IC50 (CAL-62): 117 nM; IC50 (NB14): 100 nM; IC50 (NCI-H661): 117 nM; IC50 (SW756): > 200 nM; IC50 (HCC38): > 200 nM; IC50 (CP50-MEL-B): > 200 nM; IC50 (NCI-H1993): > 200 nM; IC50 (HN): > 200 nM; IC50 (LCLC-97TM1): > 200 nM; IC50 (MKN-1): > 200 nM; IC50 (C3A): > 200 nM; IC50 (639-V): > 200 nM; IC50 (SW48): > 200 nM; IC50 (CaR-1): > 200 nM; IC50 (T-24): 13.9 nM; IC50 (IGROV-1): 38.8 nM; IC50 (CAL-51): > 200 nM; IC50 (CAL-39): 40.1 nM; IC50 (LN-405): 135 nM
CS(=O)(=O)c1ccc(C(=O)Nc2ccc(Cl)c(-c3ccccn3)c2)c(Cl)c1 [VISMODEGIB],> 10000,> 10000,> 10000,> 10000,9600,> 10000,> 10000,> 10000,> 10000,> 10000,> 10000,> 10000,> 10000,> 10000,> 10000,> 10000,> 10000,> 10000,> 10000,> 10000,IC50 (CAL-62): > 10000 nM; IC50 (NB14): > 10000 nM; IC50 (NCI-H661): > 10000 nM; IC50 (SW756): > 10000 nM; IC50 (HCC38): > 10000 nM; IC50 (CP50-MEL-B): > 10000 nM; IC50 (NCI-H1993): > 10000 nM; IC50 (HN): > 10000 nM; IC50 (LCLC-97TM1): > 10000 nM; IC50 (MKN-1): > 10000 nM; IC50 (C3A): > 10000 nM; IC50 (639-V): > 10000 nM; IC50 (SW48): > 10000 nM; IC50 (CaR-1): > 10000 nM; IC50 (T-24): > 10000 nM; IC50 (IGROV-1): 72.5 nM; IC50 (CAL-51): > 10000 nM; IC50 (CAL-39): > 10000 nM; IC50 (LN-405): > 10000 nM
